Converted amounts (≈) assume the structure as drawn. Where two headings read alike, the source gives them in different places.
Tests used:
GSK3 = details: cited from earlier work
[1] = system: oxidative stress-induced neurodegeneration; details: cited from earlier work
[2] = system: Δ7 SMA KO mouse model of SMA; details: transgenic Δ7 SMA KO mouse model; cited from earlier work
[3] = system: SMA patient-derived fibroblast cells; details: Western blot; cited from earlier work
[4] = Plasma protein binding (RED), mouse; format: in vitro ADME, mouse (CD-1); details: CD-1, 5 hours at 37° C., read-out: Plasma Protein Binding (Mouse, % bound) (converted)
Solubility in PBS = details: 23 °C, aqueous buffer, thermodynamic from solid
Experimental: (§6) Solubility of compound was tested in triplicate by diluting a 10 mM DMSO solution with PBS. Maximum concentration of compound in solution was 100 μM.
(§7) Solubility of compound was tested in triplicate by drying down a 10 mM DMSO solution and then attempting to reconstitute in 100% PBS. Maximum concentration of compound in solution was 500 μM.
(§8) Compound requirements (1% DMSO in PBS): 30 μL of a 10 mM DMSO solution. Compound requirements (PBS-only): 60 μL of a 10 mM DMSO solution. Equilibration time: 18 hours at room temperature.

Plasma stability, mouse = format: in vitro ADME, mouse (CD-1)
Experimental: (§1) Stability of compound in plasma was tested in duplicate by incubating compound at 5 μM for 5 hours at 37° C. Compound level at 5 hours was compared to level at 0 hours, and percent remaining was calculated. Binding to plasma proteins was tested in duplicate by incubating compound in plasma at 5 μM for 5 hours at 37° C. in the Rapid Equilibrium Dialysis (RED) Device. Compound level in plasma compartment was compared to compound level in buffer compartment to calculate percent bound. Order by selecting Plasma Stability and Plasma Protein Binding in Prometheus, checking boxes for desired species.
(§2) Available species: human, mouse (CD-1), and rat (Sprague-Dawley). Compound requirements: 15 μL of a 10 mM DMSO solution. Incubation time: 5 hours at 37° C. Test Concentration: 5 μM.

[5] = Liver microsomal stability, mouse; format: in vitro ADME, mouse (CD-1)
Experimental: (§3) Stability of compound in liver microsomes was tested in duplicate by incubating compound at 1 μM for 60 minutes at 37° C. Compound level at 60 minutes was compared to level at 0 minutes, and percent remaining was calculated. Order by selecting Microsomal Stability in Prometheus, checking boxes for desired species.
(§4) Available species: human, mouse (CD-1), and rat (Sprague-Dawley). Compound requirements: 5 μL of a 10 mM DMSO solution. Incubation time: 60 minutes at 37° C. Test Concentration: 1 μM.
(§5) Microsomes with NADPH without compound-matrix interference. Microsomes plus compound without NADPH-non-enzymatic instability.

[6] = Liver microsomal stability, human; format: in vitro ADME
Experimental: as §3, §4, §5

Plasma stability, human = format: in vitro ADME
Experimental: as §1, §2

[7] = Plasma protein binding (RED), human; format: in vitro ADME; details: 5 hours at 37° C., read-out: Plasma Protein Binding (Human, % bound) (converted)
Experimental: as §1, §2

physchem = details: 23 °C, aqueous buffer, thermodynamic from solid
Experimental: as §6, §7, §8

MDR1 = experiment: Additional MDCK permeability (MDR1-MDCK) assay (Example 6); format: in vitro ADME; details: dog
From the text: The MDR1/MDCK assay is run at Absorption Systems. This assay is used to determine the blood-brain barrier (BBB) penetration potential of a test compound using MDR1-MDCK cell monolayers.
Assay System • Confluent monolayers of MDR1-MDCK cells, 7 to 11 days old. Assay Conditions • Receiver well with 1% BSA in modified Hanks buffer (HBSSg) • Apical and basolateral side at pH 7.4 • Dose two monolayers in each direction (N=2) • Dose apical side for (A to B) assessment • Dose basolateral side for (B to A) assessment • Sample both apical and basolateral sides at 120 minutes • Determine the concentrations of test compound using a generic LC-MS/MS method with a minimum 4 point calibration curve. Assay QC • The quality of the cell monolayer batch is verified using control compounds before monolayers are released for use • The quality of each monolayer used in the assay is verified by a TEER measurement and by calculating the Papp for a control compound.

GSK3β = GSK3β (Homo sapiens (Human), UniProt P49841); experiment: GSK3 beta biochemical assay (TR-FRET); details: GSK3β TR-FRET BIOCHEMICAL (TR-FRET) GMean IC50, 2 μM ATP (Km), 100 min at room temperature
Chain of GSK3β (P49841 whole entry): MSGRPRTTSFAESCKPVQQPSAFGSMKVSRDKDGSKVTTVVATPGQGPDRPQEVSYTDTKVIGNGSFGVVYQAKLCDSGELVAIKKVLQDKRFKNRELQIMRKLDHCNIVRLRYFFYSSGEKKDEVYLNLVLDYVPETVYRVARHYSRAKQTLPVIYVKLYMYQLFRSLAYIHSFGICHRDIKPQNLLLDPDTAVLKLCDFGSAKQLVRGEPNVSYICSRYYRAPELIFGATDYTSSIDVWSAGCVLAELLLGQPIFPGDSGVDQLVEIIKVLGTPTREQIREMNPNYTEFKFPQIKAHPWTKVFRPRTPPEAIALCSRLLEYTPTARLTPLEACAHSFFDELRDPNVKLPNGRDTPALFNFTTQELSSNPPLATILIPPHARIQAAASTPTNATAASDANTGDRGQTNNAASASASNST
Experimental: (§9) 1 nM enzyme, 200 nM biotinylated peptide
(§10) 4 μM ATP (GSK3 alpha) or 2 μM ATP (GSK3 beta)
(§11) The reaction volume is 10 μL, and the final percent DMSO is 1%. The total volume of DMSO is therefore 100 nL. It is critical that the percentage of DMSO be controlled and consistent across the plate. […] The High control is with all assay components but no inhibitor, the low control is with all assay components but no enzyme.
(§12) Make 2× detection reagents in Invitrogen TR-FRET detection buffer for final 20 nM Strepavidin-d2, 1 nM Tb^2+-pSer641 antibody (using 20 μl as final volume). 2× detection=40 nM Strepavidin-d2, 2 nM Tb^2+-pSer641 antibody.
(§13) XLFit is used for results which are archived into a database. The data is normalized as a percentage of uninhibited control minus max inhibited controls.

GSK3α = GSK3α (Homo sapiens (Human), UniProt P49840); experiment: GSK3 alpha biochemical assay (TR-FRET); details: GSK3α TR-FRET BIOCHEMICAL (TR-FRET) GMean IC50, 4 μM ATP (Km), 100 min at room temperature
Chain of GSK3α (P49840 whole entry): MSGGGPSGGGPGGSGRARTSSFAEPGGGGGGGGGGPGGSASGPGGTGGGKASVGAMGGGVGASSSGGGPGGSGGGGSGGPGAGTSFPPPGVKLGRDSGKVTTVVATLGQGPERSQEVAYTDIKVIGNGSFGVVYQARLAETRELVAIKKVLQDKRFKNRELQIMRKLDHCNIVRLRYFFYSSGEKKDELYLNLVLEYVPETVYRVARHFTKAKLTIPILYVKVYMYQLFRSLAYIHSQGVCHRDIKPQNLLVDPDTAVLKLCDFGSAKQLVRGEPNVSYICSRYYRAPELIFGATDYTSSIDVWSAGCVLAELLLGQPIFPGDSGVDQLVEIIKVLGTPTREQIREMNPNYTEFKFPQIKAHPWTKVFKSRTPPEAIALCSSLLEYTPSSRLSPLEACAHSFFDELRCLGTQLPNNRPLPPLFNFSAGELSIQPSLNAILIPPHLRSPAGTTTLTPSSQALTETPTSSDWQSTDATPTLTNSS
Experimental: as §9, §10, §11, §12, §13

[8] = mouse plasma, 5 μM, 5 hours at 37° C.
[9] = human plasma, 5 μM, 5 hours at 37° C.

SMILES | fraction unbound at 5 h, 5 μM [4] | solubility thermodynamic at 18 h (Solubility in PBS) | Plasma Stability (Mouse, % remaining) (Plasma stability, mouse; [8]) | Mouse Liver Microsomal Stability, % remaining ([5]; 1 μM, 60 minutes at 37° C.) | Human Liver Microsomal Stability, % remaining ([6]; 1 μM, 60 minutes at 37° C.) | Plasma Stability (Human, % remaining) (Plasma stability, human; [9]) | fraction unbound at 5 h, 5 μM [7] | further results
[Li+] [Li^+, Lithium] | – | – | – | – | – | – | – | IC50 (GSK3): 2000 µM
Cn1cc(C2=C(c3coc4ccccc34)C(=O)NC2=O)c2cc(Br)ccc21 [BIP-135] | – | – | – | – | – | – | – | neuroprotection [1]: neuroprotective; median survival of the mice [2]: prolong the median survival of the mice; SMN protein level [3]: elevate the SMN protein level
CC[C@@]1(c2cccc(C)c2)C2=C(CC(C)(C)CC2=O)Nc2ncsc21 [drawing 176] | 0.045 | 75 µM (≈ 26.4 µg/mL) | 97.8% | 8.2% | 0.7% | 98.9% | 0.019 | –
CC[C@@]1(c2ccccc2)C2=C(CC(C)(C)CC2=O)Nc2n[nH]cc21 [drawing 179] | 0.212 | – | 95.3% | 93% | 95% | – | – | solubility thermodynamic at 18 h (physchem): 480 µM (≈ 154 µg/mL)
CC[C@@]1(c2cccc(OC)c2)C2=C(CC(C)(C)CC2=O)Nc2ncsc21 | 0.077 | 153 µM (≈ 56.4 µg/mL) | 97.0% | 10.8% | 1.6% | 98.3% | 0.025 | –
CCC1(c2ccccc2)C2=C(CC(C)(C)CC2=O)Nc2ncsc21 (single isomer, unassigned) [Compound 1-E2, 9-Ethyl-6,6-dimethyl-9-phenyl-5,6,7,9-tetrahydrothiazolo[4,5-b]quinolin-8(4H)-one] | – | – | – | – | – | – | – | Papp A→B at 120 min, 5 μM (MDR1): 7.67 ×10⁻⁶ cm/s; Papp B→A at 120 min, 5 μM (MDR1): 24.4 ×10⁻⁶ cm/s; efflux ratio at 120 min, 5 μM (MDR1; read-out: MDCK PERMEABILITY (MDR1-MDCK) Mean P. Ratio(B-A/A-B)): 3.2; IC50 (GSK3β): 0.19 µM; IC50 (GSK3α): 0.037 µM
CC1(C)CC(=O)C2=C(C1)Nc1ncsc1[C@]2(C)c1ccccc1 [drawing 172] | 0.004 | 34 µM (≈ 11 µg/mL) | 100% | 0.7% | 17.7% | 100% | 0.005 | –
Cc1c[nH]c(-c2cnc(NCCNc3ccc(C#N)cn3)nc2-c2ccc(Cl)cc2Cl)n1 [drawing 180] | 0.043 | – | – | – | – | – | 0.039 | Plasma Stability (Mouse, % remaining) (Plasma stability, mouse): 97.0%; Mouse Liver Microsomal Stability, % remaining [5]: 4.0%; Human Liver Microsomal Stability, % remaining [6]: 3.0%; Plasma Stability (Human, % remaining) (Plasma stability, human): 100%; solubility thermodynamic at 18 h (physchem): 116 µM (≈ 54 µg/mL)

Source: US11203601B2, “Tricyclic compounds as glycogen synthase kinase 3 (GSK3) inhibitors and uses thereof” (The Broad Institute, Inc., priority 2017, dated 2021)
